According to a melting point compilation (Tetko et al.; mined from patent text by program, amines drawn as free bases though some values may be those of a salt):

melting point | Structure (SMILES)
161 to 162 °C | CCCOC(=O)C(N)C=CCP(=O)(O)O (stereo not given)
208 to 210 °C | COCc1nnc(N2N=C(c3ccc([N+](=O)[O-])c(Cl)c3)c3cc4c(cc3C[C@H]2C)OCO4)s1
83 to 85 °C | O=C(NCCCCCCOC(=O)N1CCC2(CCCC2)CC1)OC1CCN(C(=O)Oc2ccc(Oc3ccccc3)cc2)CC1
44.5 to 46.5 °C | C[C@@]1(CO)CCC(=O)O1
100 to 101 °C | C=CCONC(=O)Cc1ccc(OC)cc1
148 °C | Nc1cc(N2C(=O)c3ccccc3C2=O)c(F)cc1Cl
84.5 to 86.5 °C | COc1ccc(-c2nc(SCS(C)=O)[nH]c2-c2ccc(OC)cc2)cc1 (stereo not given)
65 to 68 °C | CNCCc1ccc2[nH]c(C)c(C(=O)OCc3ccccc3)c2c1
227 to 235 °C | O=Cc1ccc(-c2ccc(C(=O)O)cc2)c([N+](=O)[O-])c1
334 °C | CCCn1c(=O)[nH]c2ccc(C(=O)c3nc(NS(C)(=O)=O)c4ccccn34)cc2c1=O
130 to 131 °C | Cc1nc2c(N)nc3ccccc3c2n1CCOCCCc1ccccc1
198 °C | N#Cc1ccc([C@@H]2CNC[C@@]23NC(=O)N(c2cc(Cl)cc(Cl)c2)C3=O)cc1 (relative stereo)
87 to 88 °C | C=C[C@H](Cc1ccccc1)NC(=O)OCc1ccccc1
73 to 74 °C | CCOC(=O)CN(C(=O)CC)c1c(SC(F)(F)F)c(C)nn1-c1c(Cl)cc(C(F)(F)F)cc1Cl
134 to 136 °C | C=CCOc1ccc(C#N)c(O)c1
224 °C | CC(=O)N1C(=O)N(c2cc(Cl)cc(Cl)c2)C(=O)[C@]12CN(Cc1ccccc1)C[C@H]2c1ccc(C#N)cc1 (relative stereo)
198 to 200 °C | CCc1cc(C(=O)O)c(Nc2ccc(F)cc2[N+](=O)[O-])s1

melting point | Structure (SMILES)
116 °C | CCCCOCCOc1ccc(-c2ccc(N3CCC(CC(=O)OCC)C3)c(C=C(C)C(=O)O)c2)cc1 (stereo not given)
223 to 226 °C | CCCc1cnc2c(NC(=O)c3c(Cl)cccc3Cl)cccc2c1NNC(C)=O
81 to 82 °C | O=Cc1sc(Cl)c(Cl)c1Cl
210 to 211 °C | COc1ccc(Cn2nc(-n3cnn(Cc4ccc(F)cc4)c3=O)cc2C(=O)NCc2cccnc2)cc1
153 to 155 °C | COc1cc(C=C2COCC3=C2N=C2SCCN2C3c2cc(OC)c(OC)c(OC)c2)cc(OC)c1OC (stereo not given)
116 to 118 °C | N#Cc1c(N2CCc3ccccc3CC2)nc(C2CC2)n(CC(F)(F)F)c1=O
220 °C | Nc1nc2ccc(S(=O)(=O)n3c(CCCC(=O)O)cc4cc(Cl)ccc43)cc2o1
139 to 141 °C | COC1COc2cc(NS(C)(=O)=O)c(Oc3ccccc3)cc2C1=O (stereo not given)
138 to 140 °C | COC(=O)c1cscc1NC(=O)COc1ccc(Br)cn1
166 °C | Cc1ccc(C(=O)S[C@@H](C)C(=O)N2CSC[C@H]2C(=O)O)cc1
205 to 206 °C | CN1CCC(c2c(O)cc(O)c3c(=O)cc(-c4ccccc4Cl)oc23)C1CS (stereo not given)
77 to 79 °C | COC1(c2ccc(C=Cc3cc(F)cc(F)c3NC(=O)C(C)(C)C)cc2)CCOCC1
230 °C | S=c1cc(N2CCCC2)ss1
225 to 228 °C | Nc1ccc(C(=O)N2Cc3cccn3-c3ccccc32)cc1
155 to 157 °C | NCCNC(=S)Nc1c(Br)cccc1Br
111 to 114 °C | COc1cc(C=CC(=O)c2ccc(O)c(OC)c2)ccc1O
148 to 150 °C | COc1ccc(-n2nc3c(cc2=O)CCSc2sc(Br)cc2-3)cc1

Second part, the molecule before the results:

Structure (SMILES) | melting point
C(=C1CSCC2=C1N=C1SCCN1C2c1ccccc1)c1ccccc1 (stereo not given) | 195 to 196 °C
CCOC(OCC)c1nc(N)nc(N)c1-c1ccc(Cl)cc1Cl | 225 °C
COc1cccc2c1Oc1cc(SC)ccc1C2 | 112 to 114 °C
O=C(O)CS(=O)(=O)Nc1ccc(F)c(C(F)(F)F)c1 | 138 to 140 °C
CC1(C)CN(C2CCN(c3ccc(F)c(Cl)c3)C2=O)C1=O (stereo not given) | 120 to 121 °C
CCOCc1nc2cnc3cc(OCCNC(=O)OC(C)(C)C)ccc3c2n1CC1COC(C)(C)O1 (stereo not given) | 152 to 153 °C
CC12CCC(O)CC1=CCC1C2CCC2(C)C(=NC3CC3)CCC12 (stereo not given) | 187 °C
COc1cc(O)c2c(=O)c(OC)c(-c3ccc(O)c(OC)c3)oc2c1 | 171 to 173 °C
CCOC(=O)CCNC(=O)Nc1ccc([N+](=O)[O-])cc1O | 115 to 116 °C
CCNC(=Nc1ccccc1N1CCOCC1)NCC | 101 to 102 °C
c1ccc(Nc2nc(OCC3CCCCC3)c3[nH]cnc3n2)cc1 | 196 to 199 °C
COc1ccc(C(=O)Nc2c(Cl)cncc2Cl)cc1OC1C=CCC1 (stereo not given) | 177 to 178 °C
COc1cc(C2=Nc3ccc(N4CCOCC4)cc3C(=O)C2)ccc1O | 297 to 299 °C
O=S(=O)(NCCO)c1ccc(-c2ccc(S(=O)(=O)NCCO)cc2)cc1 | 203 to 206 °C
CC(=O)N1CCN(c2ccc(F)cc2O)CC1 | 183 to 185 °C
CCCCCc1ccc(-c2ccc(-c3ccc(C)cc3)s2)cc1F | 115 °C
CCOC(=O)C(CCC#N)(C(=O)OCC)c1ncc(Br)cc1[N+](=O)[O-] | 58 to 62 °C
CCCCOCCCNC(=O)c1cnc(C(=O)NCC(=O)OCc2ccccc2)c(OC)c1 | 97 to 99 °C
CC(=O)OCC(=O)C1(OC(C)=O)CCC2C3C=C(C)C4=CC(=O)CCC4(C)C3CCC21C (stereo not given) | 213 to 215 °C
CCOc1cc(C)ccc1C1CCN(CCCCNC(=O)c2ccc(-c3ccc(C(F)(F)F)cc3)cc2)CC1 | 191 °C
CS(=O)(=O)C(=C1CN(C(c2ccc(Cl)cc2)c2ccc(Cl)cc2)C1)c1cc(F)cc(F)c1 | 200 °C
CCCOC(=O)CCC(=O)c1ccc(-c2ccccc2F)cc1 | 53 to 54 °C

Structure (SMILES) | melting point
Cc1cc(-c2ccccc2O)nn1-c1ccccc1 | 225 to 229 °C
CN1CC=C(c2c[nH]c3ccc(Oc4ccccn4)cc23)CC1 | 240 to 245 °C
Cc1ccc(C#N)c(Sc2ccc(F)cc2)c1 | 93 to 96 °C
COCCOc1cc2ncc(C#N)c(Cl)c2cc1OC | 178 to 180 °C
Cc1cc2c(cc1C)C1(CO2)C(=O)N(Cc2ccccn2)c2ccccc21 (stereo not given) | 165 to 168 °C
O=Cc1c(Cl)nc(-c2ccccc2)n1Cc1ccc([N+](=O)[O-])cc1 | 150 to 152 °C
CN1OCCN(c2cc(Cl)cc(Cl)c2)C1=O | 105 to 106 °C
CC12CCC(I)CC1=CCC1C2CCC2(C)C1CCC21OCCO1 (stereo not given) | 140 to 141 °C
CN1C(=O)N(CBr)C(=O)C1(C)C | 86 to 88 °C
CCCCc1cn(-c2c(C)cccc2Cl)c(=O)n1Cc1ccc(-c2ccccc2-c2nnn[nH]2)cc1 | 163 to 164 °C
CC(=O)OC1CSC(Oc2cccc(-c3c(C)noc3C)c2)C(OC(C)=O)C1OC(C)=O (stereo not given) | 167 to 169 °C
COc1ccc(C2(c3nc(N)nc(N)n3)CCCCC2)cc1 | 159 to 163 °C
Clc1ccc2c(Nc3ccc(CNC4CCN(Cc5ccccc5)CC4)cc3)ccnc2c1 | 160 to 164 °C
COc1ccc(CN2CCC(c3cn(Cc4ccoc4)c4ncccc34)CC2)cc1C(=O)O | 230 to 232 °C
CC1(C)OC[C@@H](N)[C@H](O)CO1 (relative stereo) | 81.5 to 82.5 °C
CCN1C(=O)C(NC(=O)C(F)(F)F)CCc2c1ccc(Nc1ncc(Cl)c(N[C@@H]3CCCC[C@H]3NS(C)(=O)=O)n1)c2OC (stereo not given in full) | 160 to 162 °C
NS(=O)(=O)c1cc2c(cc1Cl)NC(C1CCCCC1)NS2(=O)=O (stereo not given) | 274 to 276 °C
O=c1c(CCCCc2ccncc2)cc2cccnc2n1-c1cccc([N+](=O)[O-])c1 | 169 to 170 °C
COC(=O)c1ccc(-c2nc(-c3ccccc3)n(C)n2)cc1 | 167 to 168 °C
Cc1cc(F)ccc1-c1nc(NCC(F)(F)F)nc2c1ccc(=O)n2-c1c(F)cccc1F | 195 to 196 °C
Cc1cccc(C2(CCC(=O)O)NC(=O)NC2=O)c1 (stereo not given) | 173 to 178 °C
Cc1ccc2c(c1)C(=O)N(Nc1ccccc1)C2=O | 168 to 170 °C

Structure (SMILES) | melting point
COc1ccc(-c2nc(N3CCOCC3)sc2-c2ccc(OC)cc2)cc1 | 133 to 135 °C
COC(=O)c1[nH]c(-c2ccccc2)c(-c2ccccc2)c1C(=O)OC | 185 to 187 °C
CC(C)(C)c1ccc2c(c1)OCC(NNc1ncnc3c1ncn3C1OC(CO)C(O)C1O)C2 (stereo not given) | 88 to 90 °C
CC(=O)c1ccc(O)c(CC#N)c1 | 154 to 168 °C
OC(COc1ccccc1-c1cc[nH]n1)CN1CCN(c2ccc(Cl)cc2)CC1 (stereo not given) | 120 to 121 °C
CC1Sc2c(C(=O)O)c(=O)c3cc(F)c(N4CCNCC4)c(F)c3n21 (stereo not given) | 260 °C
O=C(NCC1CCN(C[C@H]2COc3ccc(Cl)cc3O2)CC1)c1cccnc1 | 172 to 174 °C
Nc1cccc(-c2ccc(CCNCc3cccc(Cl)c3)c3ccccc23)n1 | 60 to 75 °C
CC(CS)C(=O)N(C)c1cncc(C(=O)O)c1 (stereo not given) | 190 to 192 °C
OC(c1ccccc1)c1ccccc1Cl (stereo not given) | 61 to 63 °C
COc1cc(-c2ccc(N)cn2)cc(OC)c1OC | 154 to 156 °C
O=C(Oc1ccccc1)N1C=CC(c2c(-c3ccc(F)cc3)nc3n2CCS3)C=C1 | 164 to 166 °C
Cc1ccc(C)n1NC(=O)COc1ccc(C2=NNC(=O)NC2C)cc1Cl (stereo not given) | 189 to 190 °C
O=C(NCCN1CCC(n2c(=O)[nH]c3ccccc32)CC1)c1ccco1 | 229 °C
CC(C)OC(=O)c1cnn(-c2ccccn2)c1S(N)(=O)=O | 123 to 124 °C
CCCCCN1CC[C@@H](c2ccc(Br)cc2)[C@H](CO)C1 (racemic) | 128 to 130 °C
CC(C)N1NC(c2ccc(F)cc2)=c2cc(Cl)ccc2=CS1(=O)=O | 147 to 151 °C
CSc1cc(Oc2cccc(C(F)(F)F)c2)nc(C(=O)O)c1 | 54 to 57 °C
COc1ccc(C(=NO)c2sccc2Br)cc1 | 110 to 115 °C
O=C(O)C1(C(=O)Nc2ccc(F)cc2F)CC1 | 160 to 163 °C
CCN(CC)c1ccc2c(c1)OC(C(F)(F)F)C(C(=O)O)=C2 (stereo not given) | 214 to 215 °C
CC1Cc2cc3c(cc2C(c2ccc([N+](=O)[O-])cc2)=NN1C1=NC(=O)CCS1)OCO3 (stereo not given) | 220 to 221 °C
